Data: ChEMBL document CHEMBL1152268, “Discovery and SAR of novel 4-thiazolyl-2-phenylaminopyrimidines as potent inhibitors of spleen tyrosine kinase (SYK)” (Bioorg Med Chem Lett, 2008)
The source made the active and inactive calls. The rule behind the calls is not given here.

Tests used:
[1] = molecular target: T1, Tyrosine-protein kinase ZAP-70 (Homo sapiens, UniProt P43403); assay: (§1) Inhibition of ZAP70
T1 sequence (P43403 whole entry): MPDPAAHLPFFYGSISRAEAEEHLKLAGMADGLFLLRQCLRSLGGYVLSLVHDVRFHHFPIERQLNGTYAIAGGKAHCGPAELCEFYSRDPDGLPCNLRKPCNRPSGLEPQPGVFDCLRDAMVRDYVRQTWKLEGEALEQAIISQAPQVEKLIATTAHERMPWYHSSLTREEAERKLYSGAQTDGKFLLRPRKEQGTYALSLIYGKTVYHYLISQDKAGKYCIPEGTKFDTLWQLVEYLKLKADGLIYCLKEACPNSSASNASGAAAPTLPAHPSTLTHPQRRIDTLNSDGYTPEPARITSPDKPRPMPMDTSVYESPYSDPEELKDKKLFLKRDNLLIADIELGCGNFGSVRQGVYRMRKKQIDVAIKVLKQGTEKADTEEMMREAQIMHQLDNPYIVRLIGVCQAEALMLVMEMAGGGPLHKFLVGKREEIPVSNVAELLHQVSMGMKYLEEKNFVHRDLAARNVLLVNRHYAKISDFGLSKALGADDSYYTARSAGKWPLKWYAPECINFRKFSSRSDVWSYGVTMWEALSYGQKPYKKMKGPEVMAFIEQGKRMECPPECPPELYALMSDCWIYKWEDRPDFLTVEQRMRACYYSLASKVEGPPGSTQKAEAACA

[2] = molecular target: Cyclin-dependent kinase 2 (Homo sapiens, UniProt P24941); assay: Inhibition of CDK2
[3] = molecular target: Proto-oncogene tyrosine-protein kinase Src (Homo sapiens, UniProt P12931); assay: Inhibition of SRC
Proto-oncogene tyrosine-protein kinase Src, sequence (P12931 2-536 limits assumed): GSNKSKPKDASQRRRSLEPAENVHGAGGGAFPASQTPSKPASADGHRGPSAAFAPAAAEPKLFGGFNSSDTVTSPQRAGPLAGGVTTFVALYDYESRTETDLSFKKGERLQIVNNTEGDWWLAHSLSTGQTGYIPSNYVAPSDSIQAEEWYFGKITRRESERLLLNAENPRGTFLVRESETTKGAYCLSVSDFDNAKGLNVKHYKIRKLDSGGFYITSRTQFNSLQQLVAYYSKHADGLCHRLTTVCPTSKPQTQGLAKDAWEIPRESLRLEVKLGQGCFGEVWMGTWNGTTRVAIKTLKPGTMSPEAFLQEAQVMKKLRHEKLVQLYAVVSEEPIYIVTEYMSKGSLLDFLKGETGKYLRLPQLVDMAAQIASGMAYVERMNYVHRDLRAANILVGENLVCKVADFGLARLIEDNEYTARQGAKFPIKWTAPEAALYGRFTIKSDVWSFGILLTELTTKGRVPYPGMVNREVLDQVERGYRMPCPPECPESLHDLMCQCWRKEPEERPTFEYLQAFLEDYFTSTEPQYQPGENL

[4] = (§2) Metabolic stability in rat liver microsomes after 30 mins; format: ADME, Microsome; details: liver microsomes, read-out: Stability
[5] = molecular target: Tyrosine-protein kinase SYK (Homo sapiens, UniProt P43405)
Liver microsomes = assay: as §2; format: ADME, Microsome; details: microsomes, 0.5 h
[6] = molecular target: T2, Tyrosine-protein kinase ZAP-70 (Homo sapiens) (UniProt P43403); assay: as §1
T2 sequence (whole entry): T1 sequence (P43403 whole entry)

Row | Ki [1] | Ki [2] | Ki [3] | remaining at 0.5 h [4] | Ki [5] | Activity (Liver microsomes) | IC50 [5] | Activity | Activity [6] | SMILES
1 | 240 nM | > 3330 nM | > 3330 nM |  |  |  |  |  |  | Cc1cc(C)cc(Nc2nccc(-c3nc(C)c(C(=O)N[C@@H](C)CO)s3)n2)c1
2 | 318 nM | > 5000 nM | 862 nM | 12% | 14 nM |  |  |  |  | COc1cc(Nc2nccc(-c3nccs3)n2)cc(OC)c1
3 | 677 nM | > 5000 nM | 422 nM | 68% | 26 nM |  |  |  |  | OCCCOc1cc(Nc2nccc(-c3nccs3)n2)cc(C(F)(F)F)c1
4 | 680 nM | 1500 nM | 4000 nM | 50% | 50 nM |  |  |  |  | OCc1csc(-c2ccnc(Nc3cc(O)cc(C(F)(F)F)c3)n2)n1
5 | 1000 nM | > 2500 nM | 3500 nM |  | 33 nM | Not Active |  |  |  | COc1cc(Nc2nccc(-c3nc(CO)cs3)n2)cc(C(F)(F)F)c1
6 | 1140 nM | > 2500 nM | 3700 nM |  | 23 nM | Not Active |  |  |  | COc1cc(Nc2nccc(-c3ncc(C)s3)n2)cc(C(F)(F)F)c1
7 | 750 nM | 1500 nM | 1800 nM | 64% | 10 nM |  |  |  |  | Cc1cc(Nc2nccc(-c3nc(CO)cs3)n2)cc(C(F)(F)F)c1
8 | 1550 nM | 2450 nM | 2980 nM |  | 82 nM | Not Active |  |  |  | Cc1cccc(Nc2nccc(-c3nccs3)n2)c1
9 | 2150 nM | > 5000 nM | 1830 nM | 54% | 28 nM |  |  |  |  | COc1cc(Nc2nccc(-c3nccs3)n2)cc(C(F)(F)F)c1
10 | 450 nM | 2400 nM | 2230 nM | 35% | 10 nM |  |  |  |  | Cc1cc(C)cc(Nc2nccc(-c3nc(CO)cs3)n2)c1
11 | 754 nM | 1650 nM | 991 nM | 24% | 44 nM |  |  |  |  | Oc1cc(Nc2nccc(-c3nccs3)n2)cc(C(F)(F)F)c1
12 | 419 nM | > 5000 nM | 1060 nM | 24% | 8 nM |  |  |  |  | Cc1cc(C)cc(Nc2nccc(-c3nccs3)n2)c1
13 |  |  |  |  | 630 nM |  |  |  |  | c1ccc(Oc2cccc(Nc3nccc(-c4nccs4)n3)c2)cc1
14 | 1500 nM | > 3330 nM | > 3330 nM |  | 210 nM |  |  |  |  | Cc1cc(C)cc(Nc2nccc(-c3nc(C)c(C(=O)N[C@H](C)CO)s3)n2)c1
15 |  |  |  |  |  |  | 8 nM |  |  | NCCCNc1nc(-c2ccc(N3CCOCC3)cc2)cc2ccccc12
16 | 410 nM | 1100 nM | 348 nM |  | 23 nM | 15% |  |  |  | Cc1cc(C)cc(Nc2nccc(-c3ncc(C)s3)n2)c1
17 | 3500 nM | > 2500 nM | 3500 nM | 80% | 22 nM |  |  |  |  | Cc1cc(Nc2nccc(-c3nc(C)c(CCO)s3)n2)cc(C(F)(F)F)c1
18 | 891 nM | > 5000 nM | 1360 nM |  | 110 nM | Not Active |  |  |  | Cc1cc(Nc2nccc(-c3nccs3)n2)cc(C(F)(F)F)c1
19 | 560 nM | 2270 nM | 3500 nM | 65% | 32 nM |  |  |  |  | Cc1cc(C)cc(Nc2nccc(-c3nc(C)c(CCO)s3)n2)c1
20 | 270 nM | > 2500 nM | 2000 nM | 37% | 4 nM |  |  |  |  | Cc1cc(C)cc(Nc2nccc(-c3ncc(CO)s3)n2)c1
21 |  | > 5000 nM | 153 nM |  | 1820 nM | Not Active |  | inactive | inactive | Cc1ccc(C)c(Nc2nccc(-c3nccs3)n2)c1
22 | 1030 nM | 100 nM | 2030 nM |  | 56 nM | 5% |  |  |  | Cc1cc(C)cc(Nc2nccc(-c3nc(C)cs3)n2)c1
